Log 1/M and Cooperativity data for eleven molecules are collected here from ChEMBL document CHEMBL1135887, “Substituted pentacyclic carbazolones as novel muscarinic allosteric agents: synthesis and structure-affinity and cooperativity relationships” (J Med Chem, 2002).

Each structure is given as a SMILES string.

For assay [1], the target named is T1, Muscarinic acetylcholine receptor M4 (Homo sapiens) (UniProt P08173).
T1 sequence (whole entry): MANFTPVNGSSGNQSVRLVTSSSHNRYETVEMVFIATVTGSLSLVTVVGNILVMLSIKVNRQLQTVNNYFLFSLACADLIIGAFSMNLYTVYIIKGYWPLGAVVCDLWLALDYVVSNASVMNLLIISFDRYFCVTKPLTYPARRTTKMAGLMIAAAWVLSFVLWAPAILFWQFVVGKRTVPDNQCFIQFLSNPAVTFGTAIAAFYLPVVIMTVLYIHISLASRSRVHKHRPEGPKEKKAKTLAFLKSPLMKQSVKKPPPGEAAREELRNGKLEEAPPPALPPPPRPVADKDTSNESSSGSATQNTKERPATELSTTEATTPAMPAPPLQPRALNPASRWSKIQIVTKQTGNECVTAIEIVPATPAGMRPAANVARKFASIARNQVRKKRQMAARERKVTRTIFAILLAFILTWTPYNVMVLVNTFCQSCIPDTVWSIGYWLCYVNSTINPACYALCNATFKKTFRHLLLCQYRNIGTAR
The assay is described as follows: Logarithm of affinity (log 1/M) at the (N-methyl Scopolamine) NMS-liganded muscarinic acetylcholine receptor M4 by using semiquantitative equilibrium and off-rate assay.

In assay [2] the target is T2, Muscarinic acetylcholine receptor M2 (Homo sapiens) (UniProt P08172).
T2 sequence (whole entry): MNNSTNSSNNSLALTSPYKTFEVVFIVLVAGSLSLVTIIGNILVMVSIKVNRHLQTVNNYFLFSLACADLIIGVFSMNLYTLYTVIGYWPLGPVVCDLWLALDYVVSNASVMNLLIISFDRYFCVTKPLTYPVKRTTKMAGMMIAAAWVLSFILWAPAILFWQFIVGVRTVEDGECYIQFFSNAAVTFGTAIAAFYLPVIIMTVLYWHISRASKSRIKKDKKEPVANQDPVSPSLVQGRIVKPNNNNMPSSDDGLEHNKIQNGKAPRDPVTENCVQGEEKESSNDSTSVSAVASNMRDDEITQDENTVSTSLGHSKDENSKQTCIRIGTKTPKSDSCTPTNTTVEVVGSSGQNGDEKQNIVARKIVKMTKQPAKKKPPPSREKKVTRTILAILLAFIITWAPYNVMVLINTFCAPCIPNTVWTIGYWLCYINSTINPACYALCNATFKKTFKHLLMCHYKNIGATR
The assay is described as follows: Subtype selectivity and the cooperativity with N-methyl Scopolamine (NMS) at Muscarinic acetylcholine receptor M2; Activity range is 1.2-3.

Assay [3] addresses T2, Muscarinic acetylcholine receptor M2 (Homo sapiens). The assay is described as follows: Logarithm of affinity (log 1/M) at the (N-methyl Scopolamine) NMS-liganded muscarinic acetylcholine receptor M2 by using semiquantitative equilibrium and off-rate assay.
Assay [4] has as its target T1, Muscarinic acetylcholine receptor M4 (Homo sapiens). Kind of assay: Subtype selectivity and cooperativity with N-methyl Scopolamine (NMS) at Muscarinic acetylcholine receptor M4; Activity range is 1.2-3.
Assay [5] addresses Muscarinic acetylcholine receptor M3 (Homo sapiens) (UniProt P20309). Kind of assay: Logarithm of affinity (log 1/M) at the (N-methyl Scopolamine) NMS-liganded muscarinic acetylcholine receptor M3 by using semiquantitative equilibrium and off-rate assay.
For assay [6], the target named is T1, Muscarinic acetylcholine receptor M4 (Homo sapiens). Kind of assay: Logarithm of affinity (log 1/M) at the muscarinic acetylcholine receptor M4 by using semiquantitative equilibrium and off-rate assay.
Assay [7] has as its target T3, Muscarinic acetylcholine receptor M1 (Homo sapiens) (UniProt P11229).
T3 sequence (whole entry): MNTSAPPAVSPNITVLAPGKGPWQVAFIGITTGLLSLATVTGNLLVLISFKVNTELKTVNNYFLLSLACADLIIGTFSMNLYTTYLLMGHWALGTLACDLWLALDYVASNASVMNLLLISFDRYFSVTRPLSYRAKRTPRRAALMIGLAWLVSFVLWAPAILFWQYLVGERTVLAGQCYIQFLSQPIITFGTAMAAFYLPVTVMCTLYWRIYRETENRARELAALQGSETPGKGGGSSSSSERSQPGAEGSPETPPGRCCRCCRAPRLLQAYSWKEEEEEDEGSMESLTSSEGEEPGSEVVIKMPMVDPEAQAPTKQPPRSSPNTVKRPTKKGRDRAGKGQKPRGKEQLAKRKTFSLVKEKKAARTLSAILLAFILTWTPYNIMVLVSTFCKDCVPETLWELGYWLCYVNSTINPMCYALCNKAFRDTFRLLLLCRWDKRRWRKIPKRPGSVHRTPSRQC
Kind of assay: Logarithm of affinity (log 1/M) at the (N-methyl Scopolamine) NMS-liganded muscarinic acetylcholine receptor M1 by using semiquantitative equilibrium and off-rate assay.

Assay [8] deals with T2, Muscarinic acetylcholine receptor M2 (Homo sapiens). Kind of assay: Logarithm of affinity (log 1/M) at the muscarinic acetylcholine receptor M2 by using semiquantitative equilibrium and off-rate assay.
Assay [9] has as its target T3, Muscarinic acetylcholine receptor M1 (Homo sapiens). Kind of assay: Subtype selectivity and the cooperativity with N-methyl Scopolamine (NMS) at Muscarinic acetylcholine receptor M1; Activity range is 0.81-1.19.
Assay [10] addresses Muscarinic acetylcholine receptor M3 (Homo sapiens) (UniProt P20309). Kind of assay: Logarithm of affinity (log 1/M) at the muscarinic acetylcholine receptor M3 by using semiquantitative equilibrium and off-rate assay.
Assay [11] addresses T3, Muscarinic acetylcholine receptor M1 (Homo sapiens). Kind of assay: Logarithm of affinity (log 1/M) at the free muscarinic acetylcholine receptor M1 by using semiquantitative equilibrium and off-rate assay.
Assay [12] concerns the target Muscarinic acetylcholine receptor M3 (Homo sapiens) (UniProt P20309). The assay is described as follows: Subtype selectivity and the cooperativity with N-methyl Scopolamine (NMS) at muscarinic acetylcholine receptor M3; Activity range is 0.2-0.8.
Assay [13] concerns the target T2, Muscarinic acetylcholine receptor M2 (Homo sapiens). The assay is described as follows: Subtype selectivity and the cooperativity with N-methyl Scopolamine (NMS) at Muscarinic acetylcholine receptor M2; Activity range is 0.2-0.8.
In assay [14] the target is T1, Muscarinic acetylcholine receptor M4 (Homo sapiens). Kind of assay: Subtype selectivity and the cooperativity with N-methyl Scopolamine (NMS) at Muscarinic acetylcholine receptor M4; Activity range is 0.2-0.8.
Assay [15] concerns the target T3, Muscarinic acetylcholine receptor M1 (Homo sapiens). The assay is described as follows: Subtype selectivity and the cooperativity with N-methyl Scopolamine (NMS) at Muscarinic acetylcholine receptor M1; Activity range is 0.2-0.8.
Assay [16] has the same target. The assay is described as follows: Subtype selectivity and the cooperativity with N-methyl Scopolamine (NMS) at Muscarinic acetylcholine receptor M1; Activity range is 1.2-3.
For assay [17], the target named is T2, Muscarinic acetylcholine receptor M2 (Homo sapiens). Kind of assay: Subtype selectivity and the cooperativity with N-methyl Scopolamine (NMS) at Muscarinic acetylcholine receptor M2.
The target of assay [18] is Muscarinic acetylcholine receptor M3 (Homo sapiens) (UniProt P20309). Kind of assay: Subtype selectivity and the cooperativity with N-methyl Scopolamine (NMS) at Muscarinic acetylcholine receptor M3; […].
Sequence of Muscarinic acetylcholine receptor M3 (Homo sapiens) (P20309 whole entry, looked up): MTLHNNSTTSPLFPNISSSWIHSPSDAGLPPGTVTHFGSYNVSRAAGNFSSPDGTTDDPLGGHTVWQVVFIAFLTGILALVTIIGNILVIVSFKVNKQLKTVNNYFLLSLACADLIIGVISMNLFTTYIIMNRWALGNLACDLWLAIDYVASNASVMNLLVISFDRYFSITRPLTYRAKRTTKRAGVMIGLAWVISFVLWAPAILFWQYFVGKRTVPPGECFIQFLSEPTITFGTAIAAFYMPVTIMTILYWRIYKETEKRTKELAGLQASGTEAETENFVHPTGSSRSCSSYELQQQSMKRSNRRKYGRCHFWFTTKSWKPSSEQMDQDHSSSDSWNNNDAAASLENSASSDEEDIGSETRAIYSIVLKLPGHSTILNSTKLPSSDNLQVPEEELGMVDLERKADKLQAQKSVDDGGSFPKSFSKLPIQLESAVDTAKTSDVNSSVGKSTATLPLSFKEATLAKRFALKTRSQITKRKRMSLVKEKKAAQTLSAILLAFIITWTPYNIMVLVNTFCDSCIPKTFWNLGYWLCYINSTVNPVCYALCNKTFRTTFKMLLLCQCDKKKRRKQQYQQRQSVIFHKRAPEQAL
In assay [19] the target is T1, Muscarinic acetylcholine receptor M4 (Homo sapiens). The assay is described as follows: Subtype selectivity and the cooperativity with N-methyl Scopolamine (NMS) at Muscarinic acetylcholine receptor M4.
The target is the same in assay [20]. Kind of assay: Subtype selectivity and the cooperativity with N-methyl Scopolamine (NMS) at Muscarinic acetylcholine receptor M4; Activity range is 0.81-1.19.
The target of assay [21] is T3, Muscarinic acetylcholine receptor M1 (Homo sapiens). Kind of assay: Subtype selectivity and the cooperativity with N-methyl Scopolamine (NMS) at Muscarinic acetylcholine receptor M1.

For `COc1ccc2c3c4c(cc5c3n(c2c1)C(=O)CC5)CCNC4`, the Log 1/M came out at 6 in assay [1]; 6.18 in [3]; 4.86 in [5]; 5.68 in assay [6]; 6.17 in [7]; 5.92 in assay [8]. Moreover, the Log 1/M in assay [10] stood at 5.14; in [11], 6.13. Also, the Cooperativity in [2] is 3; in [4], 3; in assay [9], 1.19; in assay [12] it was 0.8.

As to `COc1cc2c3c4c(cc5c3n(c2cc1OC)C(=O)CC5(C)C)CCNC4`, the Log 1/M in assay [1] turned out to be 6.37; in assay [3], 6.7; in assay [5], 5.47; in [6], 6.67; in assay [7] it was 6.29; in assay [8], 7.08. Moreover, the Log 1/M came to 6.03 in assay [10] and 6.88 in [11]. The Cooperativity in [13], in [14], in assay [15] and in [12] was 0.8 throughout.

Turning to `O=C1CCc2cc3c(c4c5c(Cl)cccc5n1c24)CCNC3`, the Log 1/M came to 6.66 in assay [1]; 7.12 in assay [3]; 6.05 in [5]; 6.26 in assay [6]; 6.58 in assay [7]; 6.6 in assay [8]. The Log 1/M came to 5.92 in assay [10] and 6.24 in assay [11]. Besides, the Cooperativity is 3 in [4], 3 in assay [16], greater than 3 in assay [17] and 1.19 in [18].

On to `O=C1CCc2cc3c(c4c5ccc(Cl)cc5n1c24)CCNC3`, for which the Cooperativity in assay [19] is greater than 3; in assay [2], 3; in assay [16] it was 3; in [18], 1.19. In addition, the Log 1/M in assay [1] was 6.47; in assay [3] it was 6.81; in assay [5], 5.48; in assay [6], 5.61; in assay [7], 6.51; in assay [8] it was 6.46. The Log 1/M in assay [10] was 5.39; in [11] it was 6.06.

Consider `CC1(C)CC(=O)n2c3cccc(O)c3c3c4c(cc1c32)CNCC4`, for which the Log 1/M was found to be 5.97 in [1]; 5.88 in assay [3]; 4.84 in [5]; 5.75 in [6]; 5.84 in [7]; 5.56 in [8]. The Log 1/M in assay [10] is 5.15; in [11], 5.8. The Cooperativity in [2] amounted to 3; in assay [4], 3; in assay [9], 1.19; in assay [12], 0.8.

On to `N#Cc1ccc2c3c4c(cc5c3n(c2c1)C(=O)CC5)CNCC4`, for which the Log 1/M in [1] turned out to be 5.36; in [3], 5.58; in assay [5], 4.68; in assay [6], 5.85; in [7] it was 5.46; in assay [8] it was 5.79. Further, the figures for the Log 1/M in assay [10] and in assay [11] were 5.19 and 5.87, respectively. Moreover, the Cooperativity in assay [13] came out at 0.8; in assay [20] it was 1.19; in assay [15], 0.8; in assay [12], 0.8.

For the molecule `CC1(C)CC(=O)n2c3ccccc3c3c4c(cc1c32)CCNC4`, the Log 1/M was determined as 5.8 in assay [1]; 5.87 in assay [3]; 4.56 in assay [5]; 5.42 in [6]; 5.69 in assay [7]; 5.69 in [8]. The figures for the Log 1/M in assay [10] and in assay [11] were 4.86 and 5.6, respectively. For the same molecule, the Cooperativity turned out to be 3 in [2], 3 in assay [4], 3 in assay [16] and 0.8 in [12].

Turning to `COC(=O)c1ccc2c(c1)c1c3c(cc4c1n2C(=O)CC4)CCNC3`, the Log 1/M turned out to be 5.91 in [1]; 6.03 in assay [3]; 4.88 in assay [5]; 5.84 in assay [6]; 5.85 in [7]; 6.14 in assay [8]. For the same molecule, the values for the Log 1/M in [10] and in [11] were 5.55 and 6.19, respectively. In addition, the Cooperativity turned out to be 0.8 in assay [13], 1.19 in assay [20], 0.8 in assay [15] and 0.8 in [12].

As to `COC(=O)c1ccc2c3c4c(cc5c3n(c2c1)C(=O)CC5)CNCC4`, the Log 1/M in assay [1] was determined as 6.01; in assay [3], 6.35; in assay [5] it was 4.83; in [6] it was 5.04; in assay [7], 5.72; in assay [8], 6.39. For the same molecule, the Log 1/M in assay [10] came to 5.43; in [11], 6.14. For the same molecule, the Cooperativity in [13], in assay [14], in assay [15] and in assay [12] was 0.8 in each case.

With `O=C1CCc2cc3c(c4c5c(O)cccc5n1c24)CCNC3`, the Cooperativity was greater than 3 in assay [19], greater than 3 in assay [21], greater than 3 in assay [17] and 1.19 in assay [18]. For the same molecule, the Log 1/M was determined as 6.13 in [1]; 6.28 in [3]; 5.27 in assay [5]; 5.6 in assay [6]; 6.11 in assay [7]; 5.99 in assay [8]. For the same molecule, the Log 1/M is 5.43 in assay [10] and 5.84 in assay [11].

On to `COc1ccc2c3c4c(cc5c3n(c2c1)C(=O)CC5)CNCC4`, for which the Log 1/M is 6.14 in assay [1]; 6.35 in assay [3]; 5.2 in assay [5]; 4.64 in assay [6]; 6.07 in [7]; 5.9 in assay [8]. Further, the Log 1/M stood at 5.33 in assay [10] and 5.84 in [11]. Also, the Cooperativity was found to be 3 in [2], 3 in assay [4], 3 in assay [16] and 0.8 in assay [12].
